This note sets out measurements from ChEMBL document CHEMBL1133636, “Discovery of (2S)-1-(4-amino-2,3,5- trimethylphenoxy)-3-[4-[4-(4- fluorobenzyl)phenyl]-1-piperazinyl]-2-propanol dimethanesulfonate (SUN N8075): a dual Na(+) and Ca(2+) channel blocker with antioxidant activity” (J Med Chem, 2000).

A short description of assay [1]: Tested for anticonvulsant effects on audiogenic seizures in DBA/2 mice; administered intra peritonealy. Format: functional. As to conditions: Mus musculus.
A further assay deals with D(2) dopamine receptor (Rattus norvegicus, UniProt P61169). In words: Concentration required for 50% inhibitory effect on Dopamine receptor D2 determined in competition experiments with [3H]raclopride.
Sequence of D(2) dopamine receptor (P61169 whole entry): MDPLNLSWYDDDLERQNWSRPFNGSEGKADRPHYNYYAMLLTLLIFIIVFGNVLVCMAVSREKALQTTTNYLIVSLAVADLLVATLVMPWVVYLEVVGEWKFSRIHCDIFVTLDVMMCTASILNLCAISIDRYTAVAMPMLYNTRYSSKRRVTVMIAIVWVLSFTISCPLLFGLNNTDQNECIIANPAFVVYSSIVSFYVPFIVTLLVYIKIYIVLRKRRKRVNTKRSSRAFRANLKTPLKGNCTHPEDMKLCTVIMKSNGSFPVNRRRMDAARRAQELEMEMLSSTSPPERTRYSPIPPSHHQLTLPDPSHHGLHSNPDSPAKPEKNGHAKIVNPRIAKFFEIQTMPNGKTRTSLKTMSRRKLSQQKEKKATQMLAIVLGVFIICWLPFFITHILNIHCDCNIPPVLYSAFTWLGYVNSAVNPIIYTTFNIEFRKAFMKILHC
The species named for assay [2] is Rattus norvegicus. In words: Concentration required for 50% inhibitory effect on automatic oxidation in plasma membrane of rat brain homogenates by measuring malondialdehyde and 4-hydroxyalkenals using peroxidized lipid colorimetric assay kit. It is filed as functional.
Assay [3] in a line: Inhibition of low-threshold (T-type) Calcium [Ca2+] currents in primary cultured rat cerebrocortical neurons using whole-cell voltage-clamp recording technique. It is filed as functional.
Assay [4] addresses Sodium channel alpha subunits; brain (Types I, II, III) (Rattus norvegicus, UniProt P04775+P04774+P08104). In words: Inhibition of veratridine-induced depolarization of rat cerebrocortical synaptosomes using a membrane potential sensitive fluorescent dye, rhodamine 6G. Format: functional, subcellular.
The species entered for assay [5] is Rattus norvegicus. Kind of assay: Concentration required for 50% inhibitory effect on automatic oxidation in plasma membrane of rat brain homogenates by measuring malondialdehyde and 4-hydroxyalkenals using peroxidized lipid colorimetric assay kit. It is filed as functional.

SMILES strings stand for the structures.

In general, ED50 refers to the midpoint of the dose-response relation. Read a high ED50 as weaker potency. For orientation: IC50 means the concentration that gives 50% inhibition. With `CS(=O)(=O)O.CS(=O)(=O)O.Cc1cc(OC[C@@H](O)CN2CCN(c3ccc(Cc4ccc(F)cc4)cc3)CC2)c(C)c(C)c1N`, in assay [1], the median effective dose (ED50) turned out to be 6.5 mg/kg. The IC50 at D(2) dopamine receptor was over 10 µM; in the assay listed under Rattus norvegicus [2] it was 0.31 µM; in assay [3], 2 µM; in assay [4], 0.42 µM.
The compound `CC(C)c1ccc(CN2CCN(C(c3ccc(F)cc3)c3ccc(F)cc3)CC2)c(=O)c(NCCO)c1` returned a 50% effective dose (ED50) in assay [1] of 14.5 mg/kg. Further, the IC50 on D(2) dopamine receptor is 1.69 µM; in the assay listed under Rattus norvegicus [2], 20 µM; in assay [3] it was 0.3 µM; in assay [4] it was 0.36 µM.
In the assay filed under Rattus norvegicus [5], `Cc1c(C)c2c(c(C)c1O)CC[C@@](C)(CCC[C@H](C)CCC[C@H](C)CCCC(C)C)O2` [ALPHA-TOCOPHEROL] yielded a 50% inhibitory concentration (IC50) of over 100 µM.
Take `Fc1ccc(C(c2ccc(F)cc2)N2CCN(C/C=C/c3ccccc3)CC2)cc1` [FLUNARIZINE]: the median effective dose (ED50) in assay [1] came to 11.4 mg/kg. The half-maximal inhibitory concentration (IC50) in assay [3] amounted to 2.2 µM.
